This note sets out measurements from PubChem BioAssay (NCI).

Common to all, as to test: DTP human tumour cell line panel, 48 h
Test [1] concerns CCRF-CEM leukemia.
Test [2] has as its system COLO 205 colon.
Test [3] deals with HOP-62 NSCLC.
Test [4] has as its system IGROV1 ovarian.
The subject of test [5] is NCI-H23 lung.
In test [6] the test system is NCI-H522 lung.
The test system of test [7] is OVCAR-3 ovarian.
Test [8] relates to SF-295 CNS.
Test [9] has as its system SF-539 CNS.
Test [10] concerns SK-OV-3 ovarian.

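Interpolation was linear, between the two tested concentrations surrounding the appropriate level; five concentrations were tested over 48 hours in 96-well plates. GI50: concentration for 50% inhibition of growth. TGI marks complete inhibition of growth.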 Where a SMILES comes first, the peptide text is derived from it. [ ]: non-standard residue; d: D form. 2Nal = N[CH](Cc1ccc2ccccc2c1)C(=O)O Some results are limits rather than exact numbers.

Usually TGI stands for the concentration giving total growth inhibition. A low value points to more potent growth arrest. With `C#CCN(N=O)C(=O)NCCCC(NC(C)=O)C(=O)NCc1ccccc1` (stereo not drawn), the TGI in test [1] was 70.3 µM; in [2], more than 100 µM; in [3], more than 100 µM; in test [4] it was more than 100 µM; in [5] it was more than 100 µM; in test [6], more than 100 µM. The TGI in test [7], in [8], in [9] and in [10] was more than 100 µM in each case.

As a reminder, the GI50 is the concentration that inhibits growth by half. `CC(C)C(NC(=O)C(CCCCN)NC(=O)C(Cc1c[nH]c2ccccc12)NC(=O)C(Cc1ccc(O)cc1)NC(=O)C(CS)NC(=O)C(N)Cc1ccc2ccccc2c1)C(=O)NC(CS)C(=O)NC(C(N)=O)C(C)O` (stereo not drawn) (H-[2Nal]CYWKVCT-NH2; configuration not given here): the GI50 in [1] is more than 100000 nM; in [2], more than 100 µM; in test [3], more than 100 µM; in test [4], more than 100000 nM; in test [5], more than 100 µM; in test [7], more than 100000 nM. Also, the GI50 in test [8] was more than 100000 nM; in [9], more than 100000 nM; in test [10], more than 100 µM. Moreover, the TGI was more than 100 µM in test [1]; more than 100 µM in test [2]; more than 100 µM in test [3]; more than 100 µM in [4]; more than 100 µM in [5]; more than 12.5 µM in test [6]. For the same compound, the TGI in test [7], in test [8], in test [9] and in test [10] was more than 100 µM each time.

In the case of `C1CCN2CC3CCCN4CCCC(C2C1)C34` (stereo not drawn), the concentration for total growth inhibition (TGI) in test [1], in test [2], in [3], in test [4], in [5] and in test [6] was more than 100 µM in each case. The TGI in [7], in test [8], in test [9] and in test [10] was more than 100 µM throughout.

Turning to `COC(=O)C(C(=O)C(=O)Nc1ccc(OC)cc1[N+](=O)[O-])c1nc2cc(C)c(C)cc2[nH]c1=O` (stereo not drawn), the TGI in test [1], in [2], in [3], in test [4], in [5] and in [6] was more than 100 µM throughout. The TGI in test [7], in [8], in test [9] and in test [10] was more than 100 µM each time.

For the compound `COc1cc(CC(C(=O)O)C(=O)O)c(OC)cc1CC(C(=O)O)C(=O)O`, the TGI in [1], in test [2], in test [3], in test [4], in test [5] and in test [6] was more than 100 µM each time. The TGI in test [7], in test [8], in [9] and in test [10] was more than 100 µM throughout.

With `CC(C)(C)NC/C(=C\c1ccccc1)C(=O)c1ccccc1`, the GI50 was 936 nM in test [1]; 1.34 µM in test [2]; 3.44 µM in test [3]; 2780 nM in test [4]; 1.77 µM in test [5]; 371 nM in test [6]. Further, the GI50 in [7] is 1190 nM; in [8] it was 2860 nM; in [9] it was 3010 nM; in [10], 3.83 µM. In addition, the total growth inhibition concentration (TGI) in test [1] was found to be 51.7 µM; in [2], 2.88 µM; in test [3], 11.4 µM; in test [4] it was 8.99 µM; in test [5], 5.02 µM; in [6], 1.77 µM. In addition, the total growth inhibition concentration (TGI) in test [7] worked out at 3.19 µM; in test [8], 11.4 µM; in test [9] it was 7.2 µM; in test [10], 13.8 µM.

Turning to `O=S(=O)(Nc1ccc2ccccc2c1)c1ccc(-c2cnc(C3CC3)o2)cc1`, the GI50 in test [1] is 1640 nM; in [2], 1.79 µM; in [3], 1.3 µM; in [4], 1080 nM; in [5] it was 3.38 µM; in test [6] it was 766 nM. Further, the GI50 in test [7] is 435 nM; in test [8], 452 nM; in test [9] it was 1170 nM; in [10], 1.54 µM. The TGI is more than 100 µM in test [1]; 9.22 µM in test [2]; 17.1 µM in [3]; 14 µM in [4]; 22.5 µM in test [5]; 14.5 µM in [6]. Moreover, the TGI was determined as 5.37 µM in test [7], 5.46 µM in [8], 3.92 µM in test [9] and 32.3 µM in test [10].

Turning to `O=C(Cn1c(C(=O)c2ccccc2)nc2ccccc21)c1ccc(F)cc1`, the GI50 in [1] was 5750 nM; in test [2], 17.9 µM; in [3], 9.44 µM; in test [4] it was 10900 nM; in [5], 19.4 µM; in test [6], 5920 nM. Moreover, the GI50 is 3390 nM in test [7], 9440 nM in test [8], 16000 nM in test [9] and 32.7 µM in [10]. Also, the TGI in [1] was more than 100 µM; in test [2], more than 64.5 µM; in test [3], more than 100 µM; in test [4], more than 100 µM; in test [5], more than 100 µM; in test [6], more than 62.9 µM. Further, the TGI was more than 25.5 µM in test [7], more than 100 µM in [8], more than 100 µM in [9] and more than 100 µM in test [10].

Regarding `Cc1nc(Nc2ccccc2)sc1C(=O)CC(=O)C(=O)NC12CC3CC(CC(C3)C1)C2`, the total growth inhibition concentration (TGI) in [1], in test [2], in [3], in [4], in test [5] and in [6] was more than 100 µM in each case. The TGI in test [7], in test [8], in test [9] and in [10] was more than 100 µM throughout.

For `Nc1nc(N)c(N=Nc2ccc(C(=O)O)c(O)c2)c(N)n1`, the total growth inhibition concentration (TGI) in test [1], in [2], in [3], in test [4], in test [5] and in test [6] was more than 100 µM in each case. The total growth inhibition concentration (TGI) in [7] was 53.8 µM; in test [8], more than 100 µM; in test [9], more than 100 µM; in test [10], more than 100 µM.

`CC(=N)N(C)O`: the TGI was 53.1 µM in test [1]; 33.2 µM in [2]; more than 100 µM in test [3]; more than 100 µM in [4]; more than 100 µM in [5]; more than 100 µM in test [6]. In addition, the TGI in [7], in [8], in test [9] and in test [10] was more than 100 µM in each case.

For the compound `CN(O)C(=S)c1ccccc1`, the TGI was 4.99 µM in test [1]; 1.75 µM in test [2]; more than 90.8 µM in test [3]; 56.3 µM in test [4]; 19.8 µM in [5]; 0.688 µM in [6]. Besides, the TGI in [7] is 34.8 µM; in [8] it was 35.9 µM; in test [9], 63.1 µM; in test [10] it was more than 95.5 µM.

On to `CCC[CH2][Sn]([CH2]CCC)([O]C(=O)c1cc(F)cc(F)c1)[O][Sn]([CH2]CCC)([CH2]CCC)[O]C(=O)c1cc(F)cc(F)c1`, for which the 50% growth inhibitory concentration (GI50) in test [1] is 101 nM; in [2] it was 1.05 µM; in test [3], 5 µM; in test [4], 1640 nM; in [5] it was 0.606 µM; in test [6], 53.8 nM. Also, the GI50 in test [7] is 1520 nM; in test [8], 1670 nM; in test [9], 1340 nM; in [10], 3.04 µM. Besides, the TGI was determined as 0.886 µM in [1]; 2.34 µM in test [2]; 14.3 µM in test [3]; 3.31 µM in test [4]; 1.88 µM in test [5]; 0.185 µM in test [6]. Further, the total growth inhibition concentration (TGI) in [7] worked out at 2.86 µM; in test [8] it was 3.06 µM; in [9] it was 2.8 µM; in test [10] it was 8.38 µM.

With `COC(=O)C1=C(C(=O)OC)C2OC1c1cc3ccccc3cc12`, the total growth inhibition concentration (TGI) in test [1] was more than 100 µM; in test [2], 3.39 µM; in test [3] it was 34.7 µM; in test [4], 9.58 µM; in [5], 11.8 µM; in test [6], 2.9 µM. Besides, the concentration for total growth inhibition (TGI) came to 7.29 µM in test [7], 38.3 µM in test [8], 12.1 µM in test [9] and 33 µM in test [10].

Turning to `CCOC(=O)c1csc(NC(=O)COc2cccc(/C=C3\CSc4ccccc4C3=O)c2)n1`, the GI50 in test [1] was 472 nM; in test [2], 8.58 µM; in test [3] it was 1.33 µM; in test [4], 166 nM; in test [5] it was 0.105 µM; in [6], 581 nM. Besides, the concentration for 50% growth inhibition (GI50) in test [7] is 158 nM; in [8], 908 nM; in [9] it was 421 nM; in [10], 13.1 µM. Also, the TGI in test [2] was 22.6 µM; in test [3], 3.9 µM; in [4], 0.363 µM; in test [5] it was 0.57 µM; in [6], 1.49 µM; in test [7] it was 0.332 µM. Besides, the values for the TGI in [8], in test [9] and in test [10] were 2.44 µM, 1.6 µM and 25.9 µM, respectively.

Consider `Cc1ccc(/C=C(\C#N)c2ccccc2)cc1`, for which the TGI in test [1], in [2], in [3], in test [4], in test [5] and in test [6] was more than 100 µM in each case. In addition, the concentration for total growth inhibition (TGI) in test [7], in [8], in [9] and in test [10] was more than 100 µM throughout.

`O=C(Nc1nc(-c2ccc(Cl)cc2)nc2c1sc(=S)n2-c1ccccc1)C(F)(F)F`: the GI50 in [1] was more than 100000 nM; in [2], 3.54 µM; in [3] it was 2.83 µM; in test [4], 3900 nM; in test [5] it was 5.45 µM; in test [6], 4720 nM. The GI50 in [7] is 2810 nM; in test [8], 1710 nM; in test [9], 1980 nM; in test [10] it was 2.71 µM. The TGI was more than 100 µM in test [1]; 32.6 µM in test [2]; 7.98 µM in test [3]; 14.3 µM in test [4]; 26.8 µM in test [5]; 39.8 µM in [6]. Also, the TGI in test [7] came out at 6.97 µM; in test [8], 4.01 µM; in test [9], 3.88 µM; in test [10], 8.1 µM.

For the compound `O=C1C(=O)N(c2cccc(C(F)(F)F)c2)C(=O)C(=O)C1c1nc2ccccc2s1`, the TGI in [1] was 65.1 µM; in test [2], more than 100 µM; in test [3] it was more than 100 µM; in [4], more than 100 µM; in test [5], more than 100 µM; in test [6], more than 100 µM. The TGI in test [7], in [8], in [9] and in test [10] was more than 100 µM each time.

Take `CC(=O)O[C@H]1C(=O)[C@@]2(C)[C@H]([C@H](OC(=O)c3ccccc3)[C@@]3(O)C[C@H](O)C(C)=C1C3(C)C)[C@]1(OC(C)=O)CO[C@@H]1C[C@@H]2O`: the concentration for total growth inhibition (TGI) in test [1] is more than 100 µM; in test [2], 81.5 µM; in [3], more than 100 µM; in [4], more than 100 µM; in [5], more than 100 µM; in [6], 44.1 µM. The TGI in test [7] was more than 100 µM; in [8] it was more than 100 µM; in test [9], more than 100 µM; in test [10] it was 69.1 µM.

As for `CC(=O)NC(CCCCN(Cc1ccccc1)C(=O)N(CCCl)N=O)C(=O)NCc1ccccc1` (stereo not drawn), the TGI is more than 84.3 µM in [1]; 67.2 µM in test [2]; 47 µM in test [3]; 60 µM in test [4]; 50.3 µM in [5]; 53.8 µM in test [6]. The TGI is more than 100 µM in test [7], 43.4 µM in [8], 28.5 µM in test [9] and more than 76.3 µM in test [10].
